# Experimental data from ChEMBL document CHEMBL1123132, “1-Benzylcyclopropylamine and 1-(phenylcyclopropyl)methylamine: an inactivator and a substrate of monoamine oxidase” (J Med Chem, 1985).
# What was measured:
# Format in all cases: protein assay
# [1] = biological target: T1, Monoamine oxidase (Homo sapiens, UniProt P21397+P27338); assay: Evaluated for (Ki value) in competition with oxidation of benzylamine.
# T1 sequence (P21397 whole entry): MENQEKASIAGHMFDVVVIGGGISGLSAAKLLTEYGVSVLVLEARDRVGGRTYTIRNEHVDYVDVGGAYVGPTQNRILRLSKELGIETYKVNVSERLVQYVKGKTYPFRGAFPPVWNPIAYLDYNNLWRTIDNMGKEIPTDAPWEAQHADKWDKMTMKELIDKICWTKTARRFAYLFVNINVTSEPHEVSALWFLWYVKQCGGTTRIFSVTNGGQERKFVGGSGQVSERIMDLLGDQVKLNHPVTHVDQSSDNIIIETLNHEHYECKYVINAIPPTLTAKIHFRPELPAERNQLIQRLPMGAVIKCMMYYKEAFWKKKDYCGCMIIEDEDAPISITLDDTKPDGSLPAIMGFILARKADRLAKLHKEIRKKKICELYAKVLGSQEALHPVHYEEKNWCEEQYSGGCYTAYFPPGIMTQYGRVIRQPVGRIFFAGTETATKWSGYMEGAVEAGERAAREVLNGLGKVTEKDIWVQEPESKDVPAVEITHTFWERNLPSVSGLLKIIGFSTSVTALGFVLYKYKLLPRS
# T1 sequence (P27338 whole entry): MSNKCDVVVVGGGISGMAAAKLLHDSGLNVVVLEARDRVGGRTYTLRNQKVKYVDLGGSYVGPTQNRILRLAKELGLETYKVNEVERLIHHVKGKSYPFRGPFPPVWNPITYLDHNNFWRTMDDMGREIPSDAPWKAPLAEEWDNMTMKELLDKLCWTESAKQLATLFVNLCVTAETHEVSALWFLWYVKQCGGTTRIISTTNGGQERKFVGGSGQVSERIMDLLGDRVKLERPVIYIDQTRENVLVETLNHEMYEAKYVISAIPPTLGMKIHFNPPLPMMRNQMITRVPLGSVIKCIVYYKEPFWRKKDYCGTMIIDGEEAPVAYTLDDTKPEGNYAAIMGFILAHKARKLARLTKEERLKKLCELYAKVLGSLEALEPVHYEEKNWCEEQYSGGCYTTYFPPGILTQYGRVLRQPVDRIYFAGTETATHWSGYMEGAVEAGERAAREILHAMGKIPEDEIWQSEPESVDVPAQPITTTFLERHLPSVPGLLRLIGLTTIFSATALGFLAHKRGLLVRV
# [2] = biological target: T1, Monoamine oxidase; assay: Evaluated for (Ki value) inactivation of Monoamine oxidase at saturation.
# [3] = biological target: T1, Monoamine oxidase; assay: Kinetic parameter (Km value) was determined
# [4] = biological target: T1, Monoamine oxidase; assay: Kinetic parameter (Kcat value) was determined
SMILES,Ki [1] [µM],Ki [2] [µM],Km [3] [µM],k cat [4] [min⁻¹]
NC1(Cc2ccccc2)CC1,51,480,–,–
NCC1(c2ccccc2)CC1,50,–,40,91
